Tests used:
[1] = system: HCC-1143 cells; details: HCC-1143 FOXM1-KD, doxorubicin
Experimental: FIG. 17. […] (A) Prostate cancer (22RV1 and LNCaP) cells were treated with indicated concentrations of paclitaxel alone or in combination with STL001 for 24 hrs. (B) Tamoxifen resistance MCF-7 breast cancer cells (TAM-R) were treated with indicated concentrations of Tamoxifen alone or in combination with STL001 for 24 hrs. In all cases, total protein samples were obtained from cells immediately after treatment and analyzed for FOXM1, cleaved caspase-3 levels via immunoblotting, β-actin was used as internal loading control (n=3). (C) Percent (%) dead cells in TAM-R cells treated with indicated concentrations of Tamoxifen alone or in combination with STL001 for 24 hrs. […] (F) HCC 143 cells with stable shRNA-mediated FOXM1 knockdown (KD) were treated with doxorubicin alone or in combination with STL001 for 24 hrs and compared to parental cells under the same treatment conditions. In all cases, total protein samples were obtained from cells immediately after treatment and analyzed for FOXM1, cleaved caspase-3 levels via immunoblotting, β-actin was used as internal loading control (n=3).
Stable FOXM1-expression knockdown in cancer cell: Cells were seeded on commercially available 12-well tissue culture plates to achieve ~40% confluency. […] Transduced cells were selected by their cultivation with puromycin (1.0 μg/mL) for 10 days and then maintained without puromycin as described above.

[2] = system: FLO-1 cells; test: Chemosensitization of esophageal adenocarcinoma cells; format: cell-based; details: 24 hrs
Text: In all cases, total protein samples were obtained from cells immediately after treatment and analyzed for FOXM1, cleaved caspase-3 levels via immunoblotting, β-actin was used as internal loading control (n=3). […] In all cases, total protein samples were obtained from cells immediately after treatment and analyzed for FOXM1 and cleaved caspase-3 levels via immunoblotting, β-actin was used as internal loading control.

For `O=C(Oc1cccc(-c2ccn(-c3nc(Nc4ccccc4)nc(N4CCOCC4)n3)n2)c1)c1ccco1` [STL001], which “sensitization effect in FOXM1 deficient cells” value [1] is on record?
Its value is “absent”.

What about the “sensitization to Cisplatin, 5′FU, Paclitaxel, Irinotecan” value [2] of the same compound?
Its value is “sensitizes esophageal adenocarcinoma cells (FLO-1) to conventional chemotherapeutic drugs”.

From patent US20260217691A1, “FOXM1 INHIBITORS AND THEIR USE IN TREATING CANCERS” (THE BOARD OF TRUSTEES OF THE UNIVERSITY OF ILLINOIS, priority 2022, published 2026)
